From US20240391931A1 (Bristol-Myers Squibb Company, priority 2021, published 2024)

Legend:
[1] = target: T1, HER2 (Homo sapiens, UniProt P04626); experiment: HER2 occupancy assay in N87 cells; assay type: cell-based; details: concentration at which 50% of HER2 is irreversible bound, read-out: N87 HER2 Occ
T1 construct: BT474 and N87 cell lines which endogenously overexpress the HER2 wildtype (WT) protein; endogenous in cells; host or cells: BT474, N87
Experimental: In order to assess free HER2 protein, a biotinylated probe was utilized. BT474, N87, and Ba/F3-HER2YVMA cells were treated with test compound as described for HER2 signaling. After compound treatment, cells were washed three times with cold phosphate buffer saline (PBS, Life Technologies, Carlsbad, CA), and lysed in modified occupancy lysis buffer prepared with an irreversible biotinylated tool compound (1 μM) in 25 mM Tris pH 7.5, 150 mM NaCl, 1% Triton, and supplemented with cOmplete, EDTA-free Protease inhibitor cocktail (Roche), Phosphatase Inhibitor Cocktails 2 and 3 (Sigma-Aldrich), and 1 mM PMSF (Sigma-Aldrich).
To determine % occupancy, lysates were loaded into duplicate plates of the phospho (Tyr1248)/total ErbB2 whole cell lysate MSD kit (Meso-Scale Discovery) and incubated overnight. Plates were washed and incubation with either HER2-sulfoTag (1:50, Meso Scale Discovery) or Strep-Sulfo Tag (1:1000, Meso Scale Discovery), for detection of […]. A standard curve of untreated cells in serial dilution was included in each plate to independently fit streptavidin (Free HER2) and total HER2 MSD signals; non-specific signal (BSA control spots) was subtracted from each well. Free HER2 was then normalized by total HER2 for each sample. The results are reported as % DMSO control. The normalized data was fitted using a sigmoidal curve analysis program (Graph Pad Prism version 6) with variable Hill slope to determine EC50 values. The results are provided in Table 4, under columns titled “BT474-HER2 Occ”, “N87-HER2 Occ”, and “Ba/F3 YVMA-HER2 Occ”. HER2 Occ is the concentration of test compound at which 50% of HER2 is irreversible bound.

[2] = target: HER2YVMA (Homo sapiens, UniProt P04626, INS775YVMA); experiment: HER2 signaling (pHER2) in BEAS2B-HER2YVMA cells; assay type: cell-based; parameters: expressed in transfected cells; host or cells: HEK293 (pool), Ba/F3 (clones), BEAS2B (clones); lentiviral vector pCDH-CMV-MCS-EF1-Neo; details: read-out: BEAS2B YVMA pHER2 EC50
Sequence of HER2YVMA (P04626 with tags, fused parts or gaps INS775YVMA): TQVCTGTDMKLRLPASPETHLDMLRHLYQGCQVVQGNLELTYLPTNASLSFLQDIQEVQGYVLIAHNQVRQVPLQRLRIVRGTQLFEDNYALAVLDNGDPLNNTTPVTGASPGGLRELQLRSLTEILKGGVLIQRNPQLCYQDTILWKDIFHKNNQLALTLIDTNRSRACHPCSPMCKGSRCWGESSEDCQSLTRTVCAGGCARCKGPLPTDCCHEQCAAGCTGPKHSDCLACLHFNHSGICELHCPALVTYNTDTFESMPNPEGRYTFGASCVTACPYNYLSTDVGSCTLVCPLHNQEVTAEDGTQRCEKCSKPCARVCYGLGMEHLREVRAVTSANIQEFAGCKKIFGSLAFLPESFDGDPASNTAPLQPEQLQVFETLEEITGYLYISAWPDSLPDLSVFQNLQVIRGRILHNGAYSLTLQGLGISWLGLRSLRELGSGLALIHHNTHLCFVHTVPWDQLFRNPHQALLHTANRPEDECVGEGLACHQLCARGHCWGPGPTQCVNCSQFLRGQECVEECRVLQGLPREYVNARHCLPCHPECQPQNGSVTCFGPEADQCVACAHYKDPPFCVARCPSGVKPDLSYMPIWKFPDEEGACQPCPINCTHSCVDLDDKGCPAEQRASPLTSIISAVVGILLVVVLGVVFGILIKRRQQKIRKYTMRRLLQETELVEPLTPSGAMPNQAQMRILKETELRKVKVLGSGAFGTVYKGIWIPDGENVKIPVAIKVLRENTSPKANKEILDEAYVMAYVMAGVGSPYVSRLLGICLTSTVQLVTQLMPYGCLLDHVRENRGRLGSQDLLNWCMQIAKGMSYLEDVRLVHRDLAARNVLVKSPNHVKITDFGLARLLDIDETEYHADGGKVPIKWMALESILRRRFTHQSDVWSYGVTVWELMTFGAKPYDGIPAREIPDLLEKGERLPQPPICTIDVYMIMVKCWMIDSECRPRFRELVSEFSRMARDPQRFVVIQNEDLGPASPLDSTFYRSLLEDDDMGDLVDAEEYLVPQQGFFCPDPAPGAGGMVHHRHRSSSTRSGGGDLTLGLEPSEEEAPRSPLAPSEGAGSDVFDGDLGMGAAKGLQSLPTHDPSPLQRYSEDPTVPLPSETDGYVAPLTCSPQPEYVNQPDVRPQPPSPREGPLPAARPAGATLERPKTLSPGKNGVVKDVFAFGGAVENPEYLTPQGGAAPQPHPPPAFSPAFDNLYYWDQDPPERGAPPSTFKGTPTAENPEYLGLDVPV
Experimental: Cell culture, plasmid cloning, and lentiviral transduction were carried out according to standard procedures. The Human HER2 cDNA construct in pCMV6-Entry for the HER2 wildtype (WT) expression was obtained from Origene. The HER2 cDNA including the 12-nucleotide insertion corresponding to YVMA insertion (HER2YVMA) was codon optimized, synthesized and cloned by GenScript (Piscataway, NJ) in pcDNA3.1. The lentiviral constructs expressing HER2YVMA and HER2 WT were sub-cloned using PCR at System Biosciences (SBI, Mountainview, CA) into lentiviral vectors pCDH-CMV-MCS-EF1-Neo and lentiviral particles were generated.
Engineered lines expressing HER2YVMA and HER2 WT were prepared in HEK293 (human embryonic kidney cells), Ba/F3 (Interleukin 3 (IL3)-dependent murine pro B cell line), and BEAS2B (primary immortalized human bronchial epithelial cell line). […]
HER2 signaling was assessed in BT474 and N87 cell lines which endogenously overexpress the HER2 wildtype (WT) protein, in NCI-H1781 cells which endogenously expresses a HER2 mutant protein containing a VC insertion in the kinase domain (HER2VC or G776delinsVC), and in engineered cell lines transduced to express the Her2 mutant protein containing the YVMA insertion (Hek293-HER2YVMA and BEAS2B-HER2YVMA). […]
HER2 signaling was evaluated using phospho (Tyr1248)/total ErbB2 whole cell lysate MSD plates (Meso-Scale Discovery, Gaithersburg, MD). […]

T1 sequence (P04626 23-1255): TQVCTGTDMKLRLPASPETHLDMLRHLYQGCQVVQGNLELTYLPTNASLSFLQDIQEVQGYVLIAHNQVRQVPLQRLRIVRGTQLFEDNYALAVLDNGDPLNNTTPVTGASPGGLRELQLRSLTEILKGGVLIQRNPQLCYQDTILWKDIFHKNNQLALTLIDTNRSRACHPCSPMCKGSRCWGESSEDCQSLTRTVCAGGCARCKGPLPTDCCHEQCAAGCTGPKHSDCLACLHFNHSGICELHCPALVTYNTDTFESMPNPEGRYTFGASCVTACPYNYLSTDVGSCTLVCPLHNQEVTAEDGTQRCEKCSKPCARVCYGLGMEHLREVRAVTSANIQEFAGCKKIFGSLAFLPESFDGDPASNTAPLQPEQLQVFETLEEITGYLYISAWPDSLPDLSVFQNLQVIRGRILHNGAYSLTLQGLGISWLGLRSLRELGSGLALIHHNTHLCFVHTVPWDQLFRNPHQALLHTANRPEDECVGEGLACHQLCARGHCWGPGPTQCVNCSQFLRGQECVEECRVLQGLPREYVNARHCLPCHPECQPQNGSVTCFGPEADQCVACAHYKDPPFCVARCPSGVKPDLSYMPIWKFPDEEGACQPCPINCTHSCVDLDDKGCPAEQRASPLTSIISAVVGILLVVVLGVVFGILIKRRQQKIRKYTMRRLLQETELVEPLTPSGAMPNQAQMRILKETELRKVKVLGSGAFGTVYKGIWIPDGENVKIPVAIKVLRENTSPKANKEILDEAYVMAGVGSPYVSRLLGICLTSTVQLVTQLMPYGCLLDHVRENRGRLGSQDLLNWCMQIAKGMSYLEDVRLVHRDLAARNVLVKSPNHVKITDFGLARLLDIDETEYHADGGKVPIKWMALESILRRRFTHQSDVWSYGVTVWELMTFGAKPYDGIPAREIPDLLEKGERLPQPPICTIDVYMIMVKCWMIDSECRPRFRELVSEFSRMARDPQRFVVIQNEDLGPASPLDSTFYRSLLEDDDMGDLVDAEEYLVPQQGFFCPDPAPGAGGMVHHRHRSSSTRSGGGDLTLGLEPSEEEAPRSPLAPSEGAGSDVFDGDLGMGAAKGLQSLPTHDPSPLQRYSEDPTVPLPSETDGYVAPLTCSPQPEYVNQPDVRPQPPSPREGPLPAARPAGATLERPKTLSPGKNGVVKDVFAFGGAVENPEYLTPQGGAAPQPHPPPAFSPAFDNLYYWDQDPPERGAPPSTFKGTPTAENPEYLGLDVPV

SMILES	EC50 [1] [nM]	EC50 [2] [nM]
CN(C)C/C=C/C(=O)N1CCc2c(sc3ncnc(Nc4ccc(Oc5ccc6ncnn6c5)c(Cl)c4)c23)C1 [Compound 5, (E)-1-(4-((4-([1,2,4]triazolo[1,5-a]pyridin-6-yloxy)-3-chlorophenyl)amino)-5,8-dihydropyrido[4′,3′:4,5]thieno[2,3-d]pyrimidin-7(6H)-yl)-4-(dimethylamino)but-2-en-1-one]	< 100	–
COc1ccc(Oc2ccc(Nc3ncnc4sc5c(c34)CCN(C(=O)/C=C/CN(C)C)C5)cc2C)cn1 [Compound 95, (E)-4-(Dimethylamino)-1-(4-((4-((6-methoxypyridin-3-yl)oxy)-3-methylphenyl)amino)-5,6-dihydropyrido[4′,3′:4,5]thieno[2,3-d]pyrimidin-7(8H)-yl)but-2-en-1-one]	< 100	< 100
